# Data: paper PMC7587356, “High-Throughput Screening for Inhibitors of the SARS-CoV-2 Protease Using a FRET-Biosensor” (Molecules, 2020)
# Counter-ions that a name gives are not always drawn. Like-named read-outs stand apart in the source and are kept apart here.
# Target: SARS-CoV-2 3CLpro (Severe acute respiratory syndrome coronavirus 2, UniProt P0DTD1)
# Assay: biochemical
# Type: biochemical
# Design: Replicate_1 / Replicate_2 / mean / mean (LOPAC_screen_w_protease): unit not given here
# Details: for inhibition at 5 µM: 4 h
# [1] = sheet LOPAC_screen_w_protease, LOPAC1280 primary screen at 5 µM, with protease, mean of the two replicates
# [2] = sheet LOPAC_screen_w_protease, LOPAC1280 primary screen at 5 µM, with protease, replicate 1
# [3] = sheet LOPAC_screen_w_protease, LOPAC1280 primary screen at 5 µM, with protease, replicate 2
# [4] = LOPAC1280 primary screen with protease, 5 µM compound, replicate 1, read-out: Replicate_1 (LOPAC_screen_w_protease)
# [5] = LOPAC1280 primary screen with protease, 5 µM compound, replicate 2, read-out: Replicate_2 (LOPAC_screen_w_protease)
# [6] = LOPAC1280 primary screen with protease, 5 µM compound, mean of the two replicates
# [7] = sheet LOPAC_screen_w_protease, LOPAC1280 primary screen with protease, 5 µM compound, mean of the two replicates, read-out: mean
# [8] = sheet LOPAC_screen_w_protease, LOPAC1280 primary screen with protease, 5 µM compound, replicate 1, read-out: Replicate_1
# [9] = sheet LOPAC_screen_w_protease, LOPAC1280 primary screen with protease, 5 µM compound, replicate 2, read-out: Replicate_2
structure (smiles),measurement,setting,value
CNCCc1ccc(O)c(O)c1.Cl [N-Methyldopamine hydrochloride],mean,"sheet LOPAC_screen_w_protease, LOPAC1280 at 5 µM, mean of two replicates",1.304
same,Replicate_1,"sheet LOPAC_screen_w_protease, LOPAC1280 at 5 µM, replicate 1",0.8088
same,Replicate_2,"sheet LOPAC_screen_w_protease, LOPAC1280 at 5 µM, replicate 2",1.799
O=C(O)/C=C\C(=O)O.O=C(O)/C=C\C(=O)O.c1ccc2nc(N3CCNCC3)ccc2c1 [Quipazine dimaleate],mean,[1],0.5004
same,Replicate_1,[2],0.6596
same,Replicate_2,[3],0.3411
C=CC[C@H](N)C(=O)O [L-allylglycine],mean,"sheet LOPAC_screen_w_protease, primary screen with protease, 5 µM, mean of two replicates",0.3305
same,Replicate_1,"sheet LOPAC_screen_w_protease, primary screen with protease, 5 µM, replicate 1",-0.7105
same,Replicate_2,"sheet LOPAC_screen_w_protease, primary screen with protease, 5 µM, replicate 2",1.372
N#CC(=C(/N)Sc1ccccc1N)/C(C#N)=C(/N)Sc1ccccc1N [U0126],mean,"sheet LOPAC_screen_w_protease, primary screen with protease, compound at 5 µM, mean of two replicates",2.655
same,Replicate_1,"sheet LOPAC_screen_w_protease, primary screen with protease, compound at 5 µM, replicate 1",2.394
same,Replicate_2,"sheet LOPAC_screen_w_protease, primary screen with protease, compound at 5 µM, replicate 2",2.916
CC(=O)Oc1ccccc1C(=O)O [Acetylsalicylic acid],inhibition at 5 µM,[4],1.9%
same,inhibition at 5 µM,[5],1.38%
same,mean (LOPAC_screen_w_protease),"LOPAC1280 primary screen with protease, 5 µM compound, mean of two replicates",1.637
CCn1cc(C(=O)O)c(=O)c2cc3c(cc21)OCO3 [Oxolinic acid],inhibition at 5 µM,"sheet LOPAC_screen_w_protease, primary screen of LOPAC1280 at 5 µM with protease, mean of the two replicates, read-out: mean",3.24%
same,inhibition at 5 µM,"sheet LOPAC_screen_w_protease, primary screen of LOPAC1280 at 5 µM with protease, replicate 1, read-out: Replicate_1",3.47%
same,inhibition at 5 µM,"sheet LOPAC_screen_w_protease, primary screen of LOPAC1280 at 5 µM with protease, replicate 2, read-out: Replicate_2",3%
[Cl-].[Li+] [Lithium Chloride],mean,[1],0.7152
same,Replicate_1,[2],0.8231
same,Replicate_2,[3],0.6073
C[Se]C[C@H](N)C(=O)O.Cl [Se-(methyl)selenocysteine hydrochloride],mean (LOPAC screen with protease),"sheet LOPAC_screen_w_protease, primary screen at 5 µM, mean of two replicates",12.3582
same,Replicate_1 (LOPAC screen with protease),"sheet LOPAC_screen_w_protease, primary screen at 5 µM, replicate 1",13.6627
same,Replicate_2 (LOPAC screen with protease),"sheet LOPAC_screen_w_protease, primary screen at 5 µM, replicate 2",11.0537
C[C@H](O)C(=O)C1=Nc2c(nc(N)[nH]c2=O)NC1 [Sepiapterin],inhibition at 5 µM,"sheet LOPAC_screen_w_protease, primary screen with protease, mean of two replicates, read-out: mean",2.57%
same,inhibition at 5 µM,"sheet LOPAC_screen_w_protease, primary screen with protease, replicate 1, read-out: Replicate_1",2.59%
same,inhibition at 5 µM,"sheet LOPAC_screen_w_protease, primary screen with protease, replicate 2, read-out: Replicate_2",2.55%
CN(C)CCCC1(c2ccc(F)cc2)OCc2cc(C#N)ccc21 (stereo not drawn) [Citalopram hydrobromide],inhibition at 5 µM,"sheet LOPAC_screen_w_protease, LOPAC1280 at 5 µM, mean of two replicates, read-out: mean",1.26%
same,inhibition at 5 µM,"sheet LOPAC_screen_w_protease, LOPAC1280 at 5 µM, replicate 1, read-out: Replicate_1",1.98%
same,inhibition at 5 µM,"sheet LOPAC_screen_w_protease, LOPAC1280 at 5 µM, replicate 2, read-out: Replicate_2",0.536%
NCC(CC(=O)O)c1ccc(Cl)cc1 (racemic) [(±)-Baclofen],mean,"sheet LOPAC_screen_w_protease, primary screen with protease, mean of two replicates",2.345
same,Replicate_1,"sheet LOPAC_screen_w_protease, primary screen with protease, replicate 1",1.225
same,Replicate_2,"sheet LOPAC_screen_w_protease, primary screen with protease, replicate 2",3.465
CN[C@@H]1C[C@@H](c2ccc(Cl)c(Cl)c2)c2ccccc21 [Indatraline hydrochloride],inhibition at 5 µM,[4],1.51%
same,inhibition at 5 µM,[5],2.53%
same,mean (LOPAC_screen_w_protease),[6],2.022
"CCCCOC(=O)NS(=O)(=O)c1sc(CC(C)C)cc1-c1ccc(Cn2c(CC)nc3c(C)cc(C)nc32)cc1 [L-162,313]",mean (LOPAC_screen_w_protease),[6],1.8394
same,Replicate_1 (LOPAC_screen_w_protease),"LOPAC1280 primary screen with protease, 5 µM compound, replicate 1",2.383
same,Replicate_2 (LOPAC_screen_w_protease),"LOPAC1280 primary screen with protease, 5 µM compound, replicate 2",1.2958
S=C=Nc1cccc(C2(N3CCCCC3)CCCCC2)c1 [Metaphit methanesulfonate],inhibition at 5 µM,[7],5.96%
same,inhibition at 5 µM,[8],6.38%
same,inhibition at 5 µM,[9],5.54%
"C[C@H](Cc1ccc2c(c1)OC(C(=O)[O-])(C(=O)[O-])O2)NC[C@H](O)c1cccc(Cl)c1.[Na+].[Na+] [CL 316,243]",Replicate_1 (LOPAC_screen_w_protease),,0.6829
same,Replicate_2 (LOPAC_screen_w_protease),,2.815
same,mean (LOPAC_screen_w_protease),,1.749
CN(C)[C@@H]1C(O)=C(C(N)=O)C(=O)[C@@]2(O)C(O)=C3C(=O)c4c(O)ccc(Cl)c4[C@@H](O)[C@H]3C[C@@H]12 [Demeclocycline hydrochloride],inhibition at 5 µM,[7],4.52%
same,inhibition at 5 µM,[8],7.2%
same,inhibition at 5 µM,[9],1.84%
CC(C)NCC(O)COc1cccc2[nH]ccc12 (stereo not drawn) [Pindolol],inhibition at 5 µM,"sheet LOPAC_screen_w_protease, LOPAC1280 primary screen at 5 µM, with protease, mean of the two replicates, read-out: mean",0.855%
same,inhibition at 5 µM,"sheet LOPAC_screen_w_protease, LOPAC1280 primary screen at 5 µM, with protease, replicate 1, read-out: Replicate_1",0.309%
same,inhibition at 5 µM,"sheet LOPAC_screen_w_protease, LOPAC1280 primary screen at 5 µM, with protease, replicate 2, read-out: Replicate_2",1.4%
Cc1ccccc1CNc1ncnc2c1ncn2[C@@H]1O[C@H](CO)[C@@H](O)[C@H]1O [Metrifudil],inhibition at 5 µM,[7],4.56%
same,inhibition at 5 µM,[8],4.09%
same,inhibition at 5 µM,[9],5.03%
